Laboratory results from patent US8247211B2, “Glycopeptide antibiotics” (American Cyanamid Company, priority 2001, dated 2012).
≈ marks a conversion by molar mass, not a printed value.

Assays:
[1] = tested on: Enterococcus sp.; assay: In vitro antibacterial evaluation: minimum inhibitory concentration (MIC), broth dilution method; format: cell-based
Procedure, shortened: (§1)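 NCCLS M7-A2 broth dilution; Muller-Hinton II […]; 5×10^5 CFU/mL; 64-0.06 μg/mL. MIC = lowest concentration with no growth.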

[2] = tested on: Escherichia coli; assay: as above; format: cell-based
Procedure, shortened: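 NCCLS M7-A2 broth dilution with Mueller-Hinton II, testing 64-0.06 μg/mL antibiotic against 5×10^5 CFU/mL inocula. Test strains include recent methicillin-, penicillin- or vancomycin-resistant clinical isolates. MIC is the lowest concentration preventing growth.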

[3] = tested on: Staphylococcus sp.; assay: as above; format: cell-based; settings: for MIC Staphylococcus aureus (ATCC 29213) / MIC Staphylococcus aureus (GC 1131) / MIC Staphylococcus aureus (GC 3051) / MIC Staphylococcus aureus (GC 3053) / MIC Staphylococcus aureus (GC 4541) / MIC Staphylococcus aureus (GC 4542) / MIC Staphylococcus aureus (GC 4544) / MIC Staphylococcus aureus (GC 4545): broth dilution, 18 hours at 35° C.
Procedure, shortened: as §1

[4] = tested on: Streptococcus sp.; assay: as above; format: cell-based
Procedure, shortened: as §1

[5] = tested on: Staphylococcus aureus-SMITH (GC 4543); assay: Acute lethal infection in mice (ED50); format: in vivo; settings: female CD-1 mice, intraperitoneal challenge, intravenous dose 30 min. after infection, 7 day survival ratios
Procedure, shortened: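 Median effective dose is calculated from 7-day survival ratios pooled across three separate tests. Mice (female CD-1) receive an intraperitoneal bacterial challenge in broth or hog gastric mucin, then intravenous drug 30 min later, five animals per dose level.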

[6] = broth dilution, inoculum 5×10^5 CFU/mL, 18 hours at 35° C.

SMILES: COc1ccc(Oc2cccc(C3OCC4OC(OC5C(CO)OC(Oc6ccc(CC7NC(=O)C(C(C)c8ccccc8)NC(=O)CNC(=O)C(CO)NC(=O)C(C(O)C8CNC(=N)N8C8OC(CO)C(O)C(O)C8O)NC(=O)C(C(O)C8CNC(=N)N8)NC7=O)cc6)C(O)C5O)C(O)C(O)C4O3)c2)cc1 (stereo not shown) [Example 180]
- MIC Enterococcus avium (GC 4558) [1, 6]: 2 µg/mL (≈ 1.33 µM)
- MIC Enterococcus faecalis (ATCC 29212) [1, 6]: 4 µg/mL (≈ 2.66 µM)
- MIC Enterococcus faecalis (GC 2242) [1, 6]: 4 µg/mL (≈ 2.66 µM)
- MIC Enterococcus faecalis (GC 2691) [1, 6]: 2 µg/mL (≈ 1.33 µM)
- MIC Enterococcus faecalis (GC 3059) [1, 6]: 2 µg/mL (≈ 1.33 µM)
- MIC Enterococcus faecalis (GC 4552) [1, 6]: 2 µg/mL (≈ 1.33 µM)
- MIC Enterococcus faecalis (GC 4553) [1, 6]: 2 µg/mL (≈ 1.33 µM)
- MIC Enterococcus faecalis (GC 4554) [1, 6]: 2 µg/mL (≈ 1.33 µM)
- MIC Enterococcus faecalis (GC 6189) [1, 6]: 2 µg/mL (≈ 1.33 µM)
- MIC Enterococcus faecium (GC 2243) [1, 6]: 2 µg/mL (≈ 1.33 µM)
- MIC Enterococcus faecium (GC 4556) [1, 6]: 2 µg/mL (≈ 1.33 µM)
- MIC Enterococcus faecium (GC 4557) [1, 6]: 2 µg/mL (≈ 1.33 µM)
- MIC Enterococcus faecalis (ATCC 29212) ([1]; strain ATCC 29212): 4 µg/mL (≈ 2.66 µM)
- MIC Enterococcus faecalis (GC 2242) ([1]; strain GC 2242): 4 µg/mL (≈ 2.66 µM)
- MIC Enterococcus faecium (GC 2243) ([1]; strain GC 2243): 2 µg/mL (≈ 1.33 µM)
- MIC Enterococcus faecalis (GC 2691) ([1]; strain GC 2691): 2 µg/mL (≈ 1.33 µM)
- MIC Enterococcus faecalis (GC 3059) ([1]; strain GC 3059): 2 µg/mL (≈ 1.33 µM)
- MIC Enterococcus faecalis (GC 4552) ([1]; strain GC 4552): 2 µg/mL (≈ 1.33 µM)
- MIC Enterococcus faecalis (GC 4553) ([1]; strain GC 4553): 2 µg/mL (≈ 1.33 µM)
- MIC Enterococcus faecalis (GC 4554) ([1]; strain GC 4554): 2 µg/mL (≈ 1.33 µM)
- MIC Enterococcus faecium (GC 4556) ([1]; strain GC 4556): 2 µg/mL (≈ 1.33 µM)
- MIC Enterococcus faecium (GC 4557) ([1]; strain GC 4557): 2 µg/mL (≈ 1.33 µM)
- MIC Enterococcus avium (GC 4558) ([1]; strain GC 4558): 2 µg/mL (≈ 1.33 µM)
- MIC Enterococcus faecalis (GC 6189) ([1]; strain GC 6189): 2 µg/mL (≈ 1.33 µM)
- MIC Escherichia coli (ATCC 25922) ([2]; strain ATCC 25922): >64 µg/mL
- MIC Escherichia coli (GC 4559) ([2]; strain GC 4559): 64 µg/mL (≈ 42.5 µM)
- MIC Escherichi coli (GC 4560) ([2]; strain GC 4560): 2 µg/mL (≈ 1.33 µM)
- MIC Staphylococcus aureus (ATCC 29213) ([3]; 5×10^5 CFU/mL): 2 µg/mL (≈ 1.33 µM)
- MIC Staphylococcus aureus (GC 1131) ([3]; 5×10^5 CFU/mL): 2 µg/mL (≈ 1.33 µM)
- MIC Staphylococcus aureus (GC 3051) ([3]; 5×10^5 CFU/mL): 1 µg/mL (≈ 0.664 µM)
- MIC Staphylococcus aureus (GC 3053) ([3]; 5×10^5 CFU/mL): 2 µg/mL (≈ 1.33 µM)
- MIC Staphylococcus aureus (GC 4541) ([3]; 5×10^5 CFU/mL): 2 µg/mL (≈ 1.33 µM)
- MIC Staphylococcus aureus (GC 4542) ([3]; 5×10^5 CFU/mL): 2 µg/mL (≈ 1.33 µM)
- MIC Staphylococcus aureus (GC 4544) ([3]; 5×10^5 CFU/mL): 2 µg/mL (≈ 1.33 µM)
- MIC Staphylococcus aureus (GC 4545) ([3]; 5×10^5 CFU/mL): 2 µg/mL (≈ 1.33 µM)
- MIC Staphylococcus aureus (ATCC 29213) ([3]; strain ATCC 29213): 2 µg/mL (≈ 1.33 µM)
- MIC Staphylococcus aureus (GC 1131) ([3]; strain GC 1131): 2 µg/mL (≈ 1.33 µM)
- MIC Staphylococcus aureus (GC 3051) ([3]; strain GC 3051): 1 µg/mL (≈ 0.664 µM)
- MIC Staphylococcus aureus (GC 3053) ([3]; strain GC 3053): 2 µg/mL (≈ 1.33 µM)
- MIC Staphylococcus aureus (GC 4541) ([3]; strain GC 4541): 2 µg/mL (≈ 1.33 µM)
- MIC Staphylococcus aureus (GC 4542) ([3]; strain GC 4542): 2 µg/mL (≈ 1.33 µM)
- MIC Staphylococcus aureus-SMITH (GC 4543) ([3]; strain GC 4543): 2 µg/mL (≈ 1.33 µM)
- MIC Staphylococcus aureus (GC 4544) ([3]; strain GC 4544): 2 µg/mL (≈ 1.33 µM)
- MIC Staphylococcus aureus (GC 4545) ([3]; strain GC 4545): 2 µg/mL (≈ 1.33 µM)
- MIC Staphylococcus haemolyticus (GC 4546) ([3]; strain GC 4546): 2 µg/mL (≈ 1.33 µM)
- MIC Coagulase Negative Staphylococcus (GC 4547) ([3]; strain GC 4547): 2 µg/mL (≈ 1.33 µM)
- MIC Coagulase Negative Staphylococcus (GC 4548) ([3]; strain GC 4548): 1 µg/mL (≈ 0.664 µM)
- MIC Coagulase Negative Staphylococcus (GC 4549) ([3]; strain GC 4549): 1 µg/mL (≈ 0.664 µM)
- MIC Coagulase Negative Staphylococcus (GC 4551) ([3]; strain GC 4551): 1 µg/mL (≈ 0.664 µM)
- MIC Coagulase Negative Staphylococcus (GC 6257) ([3]; strain GC 6257): 0.5 µg/mL (≈ 0.332 µM)
- MIC Streptococcus agalactiae (GC 4564) [4, 6]: <0.06 µg/mL
- MIC Streptococcus pneumoniae (ATCC 6301) [4, 6]: <0.06 µg/mL
- MIC Streptococcus pneumoniae (GC 1894) [4, 6]: <0.06 µg/mL
- MIC Streptococcus pneumoniae (GC 4565) [4, 6]: <0.06 µg/mL
- MIC Streptococcus pyogenes (GC 4563) [4, 6]: <0.06 µg/mL
- MIC Streptococcus pneumoniae (ATCC 6301) ([4]; strain ATCC 6301): <0.06 µg/mL
- MIC Streptococcus pneumoniae (GC 1894) ([4]; strain GC 1894): <0.06 µg/mL
- MIC Streptococcus pyogenes (GC 4563) ([4]; strain GC 4563): <0.06 µg/mL
- MIC Streptococcus agalactiae (GC 4564) ([4]; strain GC 4564): <0.06 µg/mL
- MIC Streptococcus pneumoniae (GC 4565) ([4]; strain GC 4565): <0.06 µg/mL
- median effective dose (ED50), Staphylococcus aureus-SMITH (GC 4543) [5]: 0.05 mg/kg
